{
  "source": "patent US9045431B2",
  "about": "“Processes for the preparation of 5-HT2C receptor agonists” (Arena Pharmaceuticals, Inc., priority 2010, dated 2015)",
  "key": {"[1]": {"conditions": "cited from earlier work; for reported side effect: in some patients"}, "[2]": {"assay": "Dynamic moisture sorption (DMS)", "format": "physicochemical", "conditions": "for DMS result (hygroscopicity / form conversion): isotherm 25° C., 10% RH to 90% or 95% RH", "protocol": "Dynamic moisture-sorption (DMS) studies were conducted using a dynamic moisture-sorption analyzer, VTI Corporation, SGA-100. Samples were prepared for DMS analysis by placing 5 mg to 20 mg of a compound or a salt thereof in a tared sample holder. The sample was placed on the hang-down wire of the VTI balance. A drying step was run, typically at 40° C. and 0.5-1% RH for 1-2 h. The isotherm temperature is 25° C. Defined % RH holds typically ranged from 10% RH to 90% RH or 95% RH, with intervals of 10 to 20% RH. A % weight change smaller than 0.010% over a specified number of minutes (typically 10-20), or up to 2 h, whichever occurs first, is required before continuing to the next % RH hold. The water content of the sample equilibrated as described above was determined at each % RH hold."}, "[3]": {"assay": "Competitive slurry experiments / solution-mediated phase transformation (thermodynamic stability of crystal forms)", "format": "physicochemical", "conditions": "for relative thermodynamic stability among the anhydrous polymorphs: ambient / room temperature", "description": "The thermodynamic relationships between the Compound 1 hydrochloride salt hemihydrate Form III and the anhydrous polymorphs of Compound 1 hydrochloride salt were established by competitive slurry experiments in acetonitrile and acetone at various aw, values.\nAt the critical aw, a given anhydrous form and Compound 1 hydrochloride salt hemihydrate Form III will have equal solubility and can coexist in equilibrium. Below the critical aw, the anhydrous form is more thermodynamically stable, thus less soluble. Above the critical water activity, Compound 1 hydrochloride salt hemihydrate Form III is more thermodynamically stable, thus less soluble. Solids from the competitive slurry experiments were identified by PXRD. Slurries with known aw values were used instead of humidity chambers because solution-mediated phase transformations (SMPTs) are much faster than vapor-mediated phase transformations, especially near the critical aw. […] FIG. 16 illustrates the critical aw of form Compound 1 hydrochloride salt hemihydrate Form III, with respect to Compound 1 hydrochloride salt Form I, and Compound 1 hydrochloride salt, IV.\nFor enantiotropic polymorphs, the temperature that marks the point at which two polymorphs have the same thermodynamic stability is called the transition temperature (Tt)."}, "[4]": {"conditions": "cited from earlier work"}, "[5]": {"conditions": "pivotal phase 3 program, treated for up to two years, fraction of patients"}, "[6]": {"conditions": "pivotal phase 3 program, up to two years"}, "[7]": {"conditions": "second phase 3 trial, top quartile"}},
  "note": "“Also recorded” adds a separate entry of the source.",
  "data": [
    {"smiles": "CCCCCCCCCCC[C@@H](C[C@@H]1OC(=O)[C@H]1CCCCCC)OC(=O)[C@H](CC(C)C)NC=O", "note": "[Xenical™, Orlistat]", "values": [
      {"measurement": "reported side effect", "setting": "[1]", "value": "gastrointestinal distress"}
    ]},
    {"smiles": "C[C@H]1CNCCc2ccc(Cl)cc21.Cl", "note": "[Compound 1 hydrochloride salt Form IV, (R)-8-Chloro-1-methyl-2,3,4,5-tetrahydro-1H-3-benzazepine Hydrochloride Salt Form IV]", "values": [
      {"measurement": "DMS result (hygroscopicity / form conversion)", "setting": "[2]", "value": "converting to Compound 1 hydrochloride salt Form III"},
      {"measurement": "DMS result (hygroscopicity / form conversion)", "setting": "[2]; listed as Compound 1 Hydrochloride Salt Form IV", "value": "FIG. 14: Converts to hemihydrate"},
      {"measurement": "relative thermodynamic stability among the anhydrous polymorphs", "setting": "[3]", "value": "most stable of the three anhydrous polymorphs; also recorded: more stable than Compound 1 hydrochloride salt Form I"},
      {"measurement": "relative humidity at which the form is not thermodynamically favored over hemihydrate Form III", "setting": "[3]; ambient temperature", "value": "≥ 20", "unit": "% RH"}
    ]},
    {"smiles": "CCN[C@@H](C)Cc1cccc(C(F)(F)F)c1", "note": "[d-fenfluramine]", "values": [
      {"measurement": "cardiac valve defects, fraction of patients", "setting": "[1]; reports that led to withdrawal by the FDA in 1998", "value": "up to one third"}
    ]},
    {"smiles": "CC(C)CC(N(C)C)C1(c2ccc(Cl)cc2)CCC1", "note": "(stereo not drawn) [Sibutramine]", "values": [
      {"measurement": "reported side effect", "setting": "[1]", "value": "raised blood pressure"}
    ]},
    {"smiles": "C[C@H]1CNCCc2ccc(Cl)cc21.C[C@H]1CNCCc2ccc(Cl)cc21.Cl.Cl.O", "note": "[(R)-8-Chloro-1-methyl-2,3,4,5-tetrahydro-1H-3-benzazepine Hydrochloride Hemihydrate Form III]", "values": [
      {"measurement": "change in crystalline form by PXRD after the DVS cycle", "setting": "[2]; after DVS cycle", "value": "no change"},
      {"measurement": "water adsorbed in DMS", "setting": "[2]; at 90% RH", "value": "less than 0.5 wt %"},
      {"measurement": "DMS result (hygroscopicity / form conversion)", "setting": "[2]", "value": "substantially non-hygroscopic"},
      {"measurement": "DMS result (hygroscopicity / form conversion)", "setting": "[2]; listed as Compound 1 Hydrochloride Salt Hemihydrate, Form III", "value": "FIG. 11: non-hygroscopic"}
    ]},
    {"smiles": "C[C@H]1CNCCc2ccc(Cl)cc21.Cl", "note": "[Compound 1 hydrochloride salt Form I, (R)-8-Chloro-1-methyl-2,3,4,5-tetrahydro-1H-3-benzazepine Hydrochloride Salt Form I]", "values": [
      {"measurement": "DMS result (hygroscopicity / form conversion)", "setting": "[2]", "value": "complete conversion to Compound 1 hydrochloride hemihydrate Form III"},
      {"measurement": "DMS result (hygroscopicity / form conversion)", "setting": "[2]; listed as Compound 1 Hydrochloride Salt Form I", "value": "FIG. 3: Converts to Form III hemihydrate"}
    ]},
    {"smiles": "C[C@H]1CNCCc2ccc(Cl)cc21.Cl", "note": "[lorcaserin, (R)-8-Chloro-1-methyl-2,3,4,5-tetrahydro-1H-3-benzazepine hydrochloride]", "values": [
      {"measurement": "adverse event that exceeded the placebo rate by 5%", "setting": "[4]; clinical program", "value": "generally mild or moderate, transient headache"},
      {"measurement": "depression or suicidal ideation", "setting": "[4]; clinical program", "value": "no signal"},
      {"measurement": "heart rate and blood pressure", "setting": "[4]; clinical program", "value": "went down"},
      {"measurement": "quality of life", "setting": "[4]; clinical program", "value": "improved"},
      {"measurement": "risk of cardiac valvulopathy", "setting": "[4]; clinical program", "value": "did not increase"},
      {"measurement": "secondary endpoints (body composition, lipids, cardiovascular risk factors, glycemic parameters)", "setting": "[4]; compared to placebo", "value": "improved compared to placebo"},
      {"measurement": "excess body weight lost", "setting": "[4]; first phase 3 trial, based on a normal BMI of 25, fraction of excess body weight", "value": "about one-third"},
      {"measurement": "average weight lost, of their weight", "setting": "[4]; pivotal phase 3 program, on average", "value": "about 8%"},
      {"measurement": "patients who achieved at least 5% weight loss", "setting": "[4]; [5]", "value": "About two-thirds"},
      {"measurement": "patients who achieved at least 10% weight loss", "setting": "[4]; [5]", "value": "over one-third"},
      {"measurement": "tolerability", "setting": "[4]; [6]", "value": "excellent tolerability"},
      {"measurement": "weight loss (in words)", "setting": "[4]; [6]", "value": "significant weight loss"},
      {"measurement": "average weight loss, top quartile of patients", "setting": "[4]; [7]", "value": 35, "unit": "pounds"},
      {"measurement": "average weight loss, top quartile of patients, of body weight", "setting": "[4]; [7]", "value": 16, "unit": "%"}
    ]},
    {"smiles": "C[C@H]1CNCCc2ccc(Cl)cc21.Cl", "note": "[Compound 1 hydrochloride salt Form II, (R)-8-Chloro-1-methyl-2,3,4,5-tetrahydro-1H-3-benzazepine Hydrochloride Salt Form II]", "values": [
      {"measurement": "DMS result (hygroscopicity / form conversion)", "setting": "[2]", "value": "converting to the hemihydrate Form III"},
      {"measurement": "DMS result (hygroscopicity / form conversion)", "setting": "[2]; listed as Compound 1 Hydrochloride Salt Form II", "value": "FIG. 7: Converts to Form III hemihydrate"},
      {"measurement": "relative thermodynamic stability among the anhydrous polymorphs", "setting": "[3]", "value": "least stable anhydrous polymorph"}
    ]}
  ]
}
